In BigSolDB 2.1:

CC(C)(Oc1ccc(CCNC(=O)c2ccc(Cl)cc2)cc1)C(=O)O
Conditions	solubility (mole fraction)
in 2-butanone, 283.14 K	0.00191
in 2-butanone, 288.16 K	0.00227
in 2-butanone, 293.17 K	0.00268
in 2-butanone, 298.16 K	0.00312
in 2-butanone, 303.17 K	0.0037
in 2-butanone, 308.14 K	0.00436
in 2-butanone, 313.16 K	0.00505
in 2-butanone, 318.17 K	0.0058
in 2-butanone, 323.16 K	0.00685
in acetonitrile, 283.24 K	0.000113
in acetonitrile, 288.25 K	0.000153
in acetonitrile, 293.24 K	0.000202
in acetonitrile, 298.25 K	0.000274
in acetonitrile, 303.24 K	0.000355
in acetonitrile, 308.22 K	0.00047
in acetonitrile, 313.22 K	0.000625
in acetonitrile, 318.23 K	0.000809
in acetonitrile, 323.24 K	0.00103
in cyclohexanone, 283.14 K	0.00496
in cyclohexanone, 288.19 K	0.00605
in cyclohexanone, 293.24 K	0.00732
in cyclohexanone, 298.14 K	0.00891
in cyclohexanone, 303.27 K	0.0107
in cyclohexanone, 308.13 K	0.0128
in cyclohexanone, 313.19 K	0.0152
in cyclohexanone, 318.22 K	0.0177
in cyclohexanone, 323.22 K	0.0204
in ethanol, 283.14 K	0.00258
in ethanol, 288.24 K	0.00282
in ethanol, 293.3 K	0.00329
in ethanol, 298.28 K	0.00391
in ethanol, 303.24 K	0.00465
in ethanol, 308.22 K	0.00538
in ethanol, 313.13 K	0.00664
in ethanol, 318.18 K	0.00802
in ethanol, 323.24 K	0.00972
in ethyl acetate, 283.17 K	0.000557
in ethyl acetate, 288.17 K	0.000665
in ethyl acetate, 293.16 K	0.000789
in ethyl acetate, 298.14 K	0.000994
in ethyl acetate, 303.17 K	0.0012
in ethyl acetate, 308.14 K	0.00147
in ethyl acetate, 313.17 K	0.00178
in ethyl acetate, 318.16 K	0.0022
in ethyl acetate, 323.19 K	0.00262
in isobutanol, 282.95 K	0.00115
in isobutanol, 288.04 K	0.0015
in isobutanol, 292.93 K	0.00203
in isobutanol, 298.24 K	0.0026
in isobutanol, 303.2 K	0.00316
in isobutanol, 308.22 K	0.00396
in isobutanol, 313.23 K	0.00489
in isobutanol, 318.17 K	0.00603
in isobutanol, 323.2 K	0.00742
in isopentanol, 283.77 K	0.00149
in isopentanol, 288.56 K	0.00196
in isopentanol, 293.5 K	0.00248
in isopentanol, 298.59 K	0.00304
in isopentanol, 303.13 K	0.00365
in isopentanol, 308.21 K	0.00452
in isopentanol, 313.25 K	0.00555
in isopentanol, 318.17 K	0.00672
in isopentanol, 323.25 K	0.00817
in isopropanol, 283.06 K	0.00146
in isopropanol, 288.14 K	0.00195
in isopropanol, 293.19 K	0.00245
in isopropanol, 298.24 K	0.00302
in isopropanol, 303.21 K	0.00371
in isopropanol, 308.16 K	0.00462
in isopropanol, 313.14 K	0.0057
in isopropanol, 318.22 K	0.00705
in isopropanol, 323.2 K	0.00852
in methanol, 283.12 K	0.00233
in methanol, 288.24 K	0.00248
in methanol, 293.26 K	0.00282
in methanol, 298.17 K	0.00333
in methanol, 303.12 K	0.00408
in methanol, 308.14 K	0.00498
in methanol, 313.13 K	0.00614
in methanol, 318.14 K	0.00754
in methanol, 323.12 K	0.00917
in methyl propionate, 283.19 K	0.000428
in methyl propionate, 288.22 K	0.000532
in methyl propionate, 293.23 K	0.000651
in methyl propionate, 298.17 K	0.000823
in methyl propionate, 303.23 K	0.001
in methyl propionate, 308.14 K	0.0012
in methyl propionate, 313.24 K	0.00148
in methyl propionate, 318.16 K	0.00182
in methyl propionate, 323.18 K	0.00221
in n-butanol, 283.16 K	0.00227
in n-butanol, 288.17 K	0.0027
in n-butanol, 293.14 K	0.00332
in n-butanol, 298.17 K	0.00403
in n-butanol, 303.16 K	0.00493
in n-butanol, 308.14 K	0.00599
in n-butanol, 313.17 K	0.00728
in n-butanol, 318.16 K	0.00881
in n-butanol, 323.17 K	0.0104
in n-butyl acetate, 283.17 K	0.000327
in n-butyl acetate, 288.19 K	0.000401
in n-butyl acetate, 293.2 K	0.000494
in n-butyl acetate, 298.14 K	0.000629
in n-butyl acetate, 303.19 K	0.000779
in n-butyl acetate, 308.16 K	0.000948
in n-butyl acetate, 313.14 K	0.00113
in n-butyl acetate, 318.14 K	0.00138
in n-butyl acetate, 323.2 K	0.00167
in n-pentanol, 283.23 K	0.00233
in n-pentanol, 288.23 K	0.00286
in n-pentanol, 293.29 K	0.00344
in n-pentanol, 298.5 K	0.00408
in n-pentanol, 303.24 K	0.00497
in n-pentanol, 308.02 K	0.006
in n-pentanol, 313.08 K	0.0072
in n-pentanol, 317.95 K	0.00857
in n-pentanol, 322.74 K	0.0103
in n-propanol, 283.13 K	0.00239
in n-propanol, 288.18 K	0.00289
in n-propanol, 293.27 K	0.00351
in n-propanol, 298.53 K	0.00421
in n-propanol, 303.33 K	0.00517
in n-propanol, 308.23 K	0.00617
in n-propanol, 313.37 K	0.00729
in n-propanol, 318.35 K	0.00856
in n-propanol, 323.26 K	0.0104
in n-propyl acetate, 283.16 K	0.000457
in n-propyl acetate, 288.24 K	0.000548
in n-propyl acetate, 293.16 K	0.000665
in n-propyl acetate, 298.18 K	0.000819
in n-propyl acetate, 303.16 K	0.001
in n-propyl acetate, 308.16 K	0.00122
in n-propyl acetate, 313.18 K	0.00146
in n-propyl acetate, 318.16 K	0.00177
in n-propyl acetate, 323.16 K	0.00214
in sec-butanol, 283.16 K	0.0023
in sec-butanol, 288.17 K	0.00294
in sec-butanol, 293.14 K	0.00365
in sec-butanol, 298.16 K	0.00444
in sec-butanol, 303.16 K	0.0053
in sec-butanol, 308.14 K	0.00642
in sec-butanol, 313.17 K	0.00766
in sec-butanol, 318.16 K	0.00914
in sec-butanol, 323.16 K	0.0106
